Laboratory results reported in PubChem BioAssay (NCI).
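Following 48 hours of exposure in 96-well plates, responses at five concentrations were used to interpolate endpoints linearly. Here, GI50 denotes the concentration required for 50% inhibition of growth. TGI is the concentration that stops growth completely.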

Tests used:
Assay in all cases: NCI anticancer screen, dose series, 48 h
[1] = system: K-562 leukemia
[2] = system: UO-31 renal
[3] = system: MCF7 breast
[4] = system: A498 renal
[5] = system: U251 CNS
[6] = system: IGROV1 ovarian
[7] = system: BT-549 breast
[8] = system: OVCAR-4 ovarian
[9] = system: HS 578T breast
[10] = system: ACHN renal
[11] = system: CCRF-CEM leukemia
[12] = system: LOX IMVI melanoma
[13] = system: NCI-H522 lung
[14] = system: MDA-MB-435
[15] = system: SNB-19 CNS
[16] = system: OVCAR-5 ovarian
[17] = system: SF-268 CNS
[18] = system: HCC-2998 colon
[19] = system: HOP-92 NSCLC
[20] = system: SF-295 CNS
[21] = system: HT29 colon
[22] = system: RPMI-8226 leukemia
[23] = system: HL-60(TB) leukemia
[24] = system: HOP-62 NSCLC
[25] = system: DU-145 prostate
[26] = system: SK-MEL-5 melanoma
[27] = system: KM12 colon
[28] = system: RXF 393 renal
[29] = system: NCI-H460 lung
[30] = system: NCI-H226 lung
[31] = system: OVCAR-8 ovarian
[32] = system: HCT-15 colon
[33] = system: HCT-116 colon
[34] = system: COLO 205 colon
[35] = system: UACC-62 melanoma
[36] = system: SW-620 colon
[37] = system: A549 NSCLC
[38] = system: SNB-75 CNS
[39] = system: M14 melanoma
[40] = system: UACC-257 melanoma
[41] = system: SR leukemia
[42] = system: NCI/ADR-RES ovarian
[43] = system: SK-MEL-2 melanoma
[44] = system: OVCAR-3 ovarian
[45] = system: SK-OV-3 ovarian
[46] = system: CAKI-1 renal
[47] = system: SN12C renal
[48] = system: MDA-MB-231 breast
[49] = system: PC-3 prostate
[50] = system: NCI-H23 lung
[51] = system: TK-10 renal
[52] = system: MOLT-4 leukemia
[53] = system: 786-0 renal
[54] = system: SF-539 CNS
[55] = system: SK-MEL-28 melanoma
[56] = system: T-47D breast
[57] = system: MALME-3M melanoma

COC(=O)c1ccc(NC(N)=NCCC(C)(C)c2ccc(C(F)(F)F)cc2)nc1
GI50 [1]: 1.3 µM
TGI [1]: 3.72 µM
GI50 [2]: 2.9 µM
TGI [2]: 15.6 µM
GI50 [3]: 1.7 µM
TGI [3]: 3.87 µM
GI50 [4]: 2.64 µM
TGI [4]: 14.7 µM
GI50 [5]: 2.01 µM
TGI [5]: 3.89 µM
GI50 [6]: 1.77 µM
TGI [6]: 3.82 µM
GI50 [7]: 4.85 µM
TGI [7]: 18.1 µM
GI50 [8]: 1.71 µM
TGI [8]: 9.18 µM
GI50 [9]: 2.98 µM
TGI [9]: 9.9 µM
GI50 [10]: 1.91 µM
TGI [10]: 4.85 µM
GI50 [11]: 3.01 µM
TGI [11]: 11 µM
GI50 [12]: 1.57 µM
TGI [12]: 2.98 µM
GI50 [13]: 3.1 µM
TGI [13]: 13 µM
GI50 [14]: 1.83 µM
TGI [14]: 4.16 µM
GI50 [15]: 3.3 µM
TGI [15]: 11.5 µM
GI50 [16]: 2.98 µM
TGI [16]: 13.5 µM
GI50 [17]: 6.23 µM
TGI [17]: 24.8 µM
GI50 [18]: 1.79 µM
TGI [18]: 3.64 µM
GI50 [19]: 5.54 µM
TGI [19]: 23.8 µM
GI50 [20]: 1.63 µM
TGI [20]: 3.51 µM
GI50 [21]: 2.55 µM
TGI [21]: 6.83 µM
GI50 [22]: 1.65 µM
TGI [22]: 4.26 µM
GI50 [23]: 1.74 µM
TGI [23]: 3.71 µM
GI50 [24]: 6.16 µM
TGI [24]: 22 µM
GI50 [25]: 3.44 µM
TGI [25]: 13.9 µM
GI50 [26]: 1.56 µM
TGI [26]: 2.99 µM
GI50 [27]: 2.65 µM
TGI [27]: 9.12 µM
GI50 [28]: 2.18 µM
TGI [28]: 5.06 µM
GI50 [29]: 2.06 µM
TGI [29]: 4.56 µM
GI50 [30]: 3.33 µM
TGI [30]: 18.8 µM
GI50 [31]: 2.04 µM
TGI [31]: 4.63 µM
GI50 [32]: 1.99 µM
TGI [32]: 5.12 µM
GI50 [33]: 1.6 µM
TGI [33]: 3.3 µM
GI50 [34]: 1.7 µM
TGI [34]: 3.41 µM
GI50 [35]: 1.58 µM
TGI [35]: 3.07 µM
GI50 [36]: 2.03 µM
TGI [36]: 4.19 µM
GI50 [37]: 4.83 µM
TGI [37]: 17.2 µM
GI50 [38]: 5.51 µM
TGI [38]: 19.8 µM
GI50 [39]: 1.7 µM
TGI [39]: 3.8 µM
GI50 [40]: 2.03 µM
TGI [40]: 4.34 µM
GI50 [41]: 0.892 µM
TGI [41]: 2.91 µM
GI50 [42]: 2.35 µM
TGI [42]: 6.03 µM
GI50 [43]: 3.22 µM
TGI [43]: 10.5 µM
GI50 [44]: 1.78 µM
TGI [44]: 4.08 µM
GI50 [45]: 6.63 µM
TGI [45]: 19.2 µM
GI50 [46]: 2.8 µM
TGI [46]: 14.2 µM
GI50 [47]: 1.7 µM
TGI [47]: 3.25 µM
GI50 [48]: 1.76 µM
TGI [48]: 3.34 µM
GI50 [49]: 3.91 µM
TGI [49]: 15.5 µM
GI50 [50]: 2.15 µM
TGI [50]: 11.5 µM
GI50 [51]: 4.75 µM
TGI [51]: 17.6 µM
GI50 [52]: 1.88 µM
TGI [52]: 7.33 µM
GI50 [53]: 7.64 µM
TGI [53]: 28.2 µM
GI50 [54]: 1.74 µM
TGI [54]: 3.53 µM
GI50 [55]: 1.64 µM
TGI [55]: 3.23 µM
GI50 [56]: 1.62 µM
TGI [56]: 4.71 µM
GI50 [57]: 1.7 µM
TGI [57]: 3.37 µM
